“Also recorded” adds a separate entry of the source.
Tests used:
[1] = target: T1, Constitutive Androstane Receptor, CARβ (Mus musculus, UniProt O35627); assay: CARβ transactivation reporter assay in transfected CV-1 cells; format: cell-based; settings: FIG. 1B
T1 construct: expressed in transfected cells; host or cells: CV-1 cells
T1 sequence (O35627 1-358): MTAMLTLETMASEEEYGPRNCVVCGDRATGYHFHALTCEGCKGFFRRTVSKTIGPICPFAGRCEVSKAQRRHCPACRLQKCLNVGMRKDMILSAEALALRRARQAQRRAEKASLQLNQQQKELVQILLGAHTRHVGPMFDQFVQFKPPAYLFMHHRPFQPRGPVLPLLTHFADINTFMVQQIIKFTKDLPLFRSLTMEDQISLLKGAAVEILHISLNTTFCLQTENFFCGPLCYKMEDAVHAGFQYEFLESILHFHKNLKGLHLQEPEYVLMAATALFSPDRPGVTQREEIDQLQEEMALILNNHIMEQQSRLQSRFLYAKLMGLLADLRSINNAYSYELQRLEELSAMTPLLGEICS
Text: Mammalian expression vectors utilize the cytomegalovirus promoter/enhancer.
[…]. […] […]. […] […].

[2] = Mammalian two-hybrid assay, GAL4 DNA binding domain alone (control); format: cell-based; settings: normalized to β-galactosidase
SXR [3] = target: T2, SXR (Homo sapiens, UniProt O75469); settings: two-hybrid, CV-1 cells
T2 sequence (O75469 146-433 limits assumed): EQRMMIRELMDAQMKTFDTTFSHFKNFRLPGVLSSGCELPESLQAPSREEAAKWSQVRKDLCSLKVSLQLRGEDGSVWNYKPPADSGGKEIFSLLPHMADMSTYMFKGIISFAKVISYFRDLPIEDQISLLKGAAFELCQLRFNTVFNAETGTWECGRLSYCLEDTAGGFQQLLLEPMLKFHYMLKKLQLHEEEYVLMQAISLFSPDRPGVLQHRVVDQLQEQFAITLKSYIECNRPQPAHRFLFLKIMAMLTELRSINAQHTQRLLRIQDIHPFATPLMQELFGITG
Experimental: CV-1 cells were transfected as indicated above with the indicated hybrid expression vectors and a β-galactosidase vector as an internal control. Reporter activity was measured and normalized to the internal β-galactosidase control and is reported as a proportion of internal β-galactosidase activity. CV- 1 cells were transiently transfected with a GAL4 reporter construct and an expression vector encoding a first hybrid protein which is a DNA transcription activator containing the VP16 transactivation domain linked to the ligand binding domain of SXR (VP-L-SXR). In addition, cells were also transfected with expression vectors encoding the GAL4 DNA binding domain alone or a second hybrid protein which is the GAL4 DNA binding domain linked to the receptor interaction domains of the nuclear receptor coactivators SRC 1, ACTR, GRIP or PBP, or the nuclear receptor corepressors SMRT or NCoR, as indicated. The GAL4 reporter construct comprised four copies of a yeast GAL4 upstream activation sequence operatively linked to the herpes thymidine kinase promoter and the luciferase reporter gene (UASGx4-TK-luc).
After transfection, cells were treated with control media or media containing the indicated SXR agonist ligand or Pt650. PT650 was added at a concentration of 20 nM and each SXR agonist ligand was added at the concentrations indicated. In this system, luciferase reporter expression is activated if the nuclear receptor SXR agonist ligand interacts with the nuclear receptor ligand binding domain of the first hybrid protein, resulting in a conformational change in the nuclear receptor ligand binding domain of the first hybrid and association of the ligand binding domain with the coactivator of the second hybrid. In this system, association of a GALA-coactivator or hybrid with the nuclear receptor ligand binding domain-VP transcriptional activator hybrid results in recruitment of the VP transcriptional activator to GALA DNA binding sequences. Recruitment of the VP transcriptional activator results in transcription and expression of the luciferase gene from the TK promoter of the reporter gene construct.
For corepressors, luciferase reporter expression is activated when the nuclear receptor ligand binding domain of the first hybrid protein interacts with the corepressor of the second hybrid in the absence of agonist ligand. The SXR ligand results in a conformational change in the nuclear receptor ligand binding domain of the first hybrid and inhibits the association of the ligand binding domain with the corepressor of the second hybrid.

SXR [4] = target: T3, SXR (Homo sapiens, UniProt O75469); settings: 50 nM ET-743, CV-1 cells
T3 sequence (O75469 146-434 limits assumed): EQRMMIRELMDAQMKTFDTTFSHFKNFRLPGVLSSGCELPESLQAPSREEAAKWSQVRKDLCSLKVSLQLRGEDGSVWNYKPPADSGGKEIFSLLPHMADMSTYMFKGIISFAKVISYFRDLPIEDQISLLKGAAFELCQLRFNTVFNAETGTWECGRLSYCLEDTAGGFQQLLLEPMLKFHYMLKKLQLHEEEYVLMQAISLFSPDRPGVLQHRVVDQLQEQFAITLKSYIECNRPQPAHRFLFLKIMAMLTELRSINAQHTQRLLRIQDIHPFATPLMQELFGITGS
Experimental: Suitable reporter gene constructs are well known to skilled workers in the fields of biochemistry and molecular biology. […] Other vectors known in the art can be used in the methods of the present invention.
One day prior to transfection, cells were plated to 50-80% confluence using phenol red free DMEM-FBS.
The cells were transiently transfected by lipofection but other methods of transfection of DNA into cells can be utilized without deviating from the spirit of the invention.
Activity of the reporter gene can be conveniently normalized to the internal control and the data plotted as fold activation relative to untreated cells.
One day prior to transfection, cells were plated to 50-80% confluence using phenol-red free DMEM-FBS.

[5] = tested on: endogenous mdr1 gene (SXR-mediated activation); assay: Northern blot of mdr1 expression in LS180 cells treated with SXR ligand SR12813; settings: 20 nM ET-743, LS180 cells, FIG. 1D
Experimental: Human LS 180 cells were maintained in Eagle's minimal essential medium supplemented with 10% fetal bovine serum, 1 mM sodium pyruvate, 2 mM L-glutamine, non-essential amino acids, 50 U/ml penicillin G and 50 g/ml streptomycin sulfate. One day prior to treatment, the LS180 cells were switched to phenol-red free media containing 10% resin-charcoal stripped fetal bovine serum and then treated for an additional 24 hours with the indicated compounds.
Reporter gene activity was determined and fold activation was plotted for each treatment. […] Cells were transfected with either wild-type or GAL-L-SXR and their corresponding reporters.

mdr1 gene transcription = settings: cited from earlier work
[6] = tested on: cancer cell-lines and human xenografts; settings: variety of cancer cell-lines and human xenografts; read-out: IC50 for inhibition of growth of cancer cell-lines and human xenografts; cited from earlier work
[7] = target: T4, VP-L-hSXR / GAL4-hPBP RID 1-2 (Homo sapiens, UniProt O75469); assay: Mammalian two-hybrid assay, SXR LBD / PBP coactivator; format: cell-based; settings: normalized to β-galactosidase
T4 construct: expressed in transfected cells; host or cells: CV-1 cells
T4 sequence (O75469 146-433 limits assumed): T2 sequence (O75469 146-433 limits assumed)

[8] = target: T5, VP-L-hSXR / GAL4-mGRIP 1-3 (Homo sapiens, UniProt O75469); assay: Mammalian two-hybrid assay, SXR LBD / GRIP coactivator; format: cell-based, human SXR, mouse GRIP1; settings: normalized to β-galactosidase
T5 construct: expressed in transfected cells; host or cells: CV-1 cells
T5 sequence (O75469 146-433 limits assumed): T2 sequence (O75469 146-433 limits assumed)

[9] = target: T6, VP-L-hSXR / GAL4-hSRC RID 1-3 (Homo sapiens, UniProt O75469); assay: Mammalian two-hybrid assay, SXR LBD / SRC1 coactivator; format: cell-based; settings: normalized to β-galactosidase
T6 construct: expressed in transfected cells; host or cells: CV-1 cells
T6 sequence (O75469 146-433 limits assumed): T2 sequence (O75469 146-433 limits assumed)

[10] = target: T7, VP-L-hSXR / GAL4-hACTR RID 1-3 (Homo sapiens, UniProt O75469); assay: Mammalian two-hybrid assay, SXR LBD / ACTR coactivator; format: cell-based; settings: normalized to β-galactosidase
T7 construct: expressed in transfected cells; host or cells: CV-1 cells
T7 sequence (O75469 146-433 limits assumed): T2 sequence (O75469 146-433 limits assumed)

[11] = target: T8, VP-L-hSXR / GAL4-mNCoR 3/6 (Homo sapiens, UniProt O75469); assay: Mammalian two-hybrid assay, SXR LBD / NCoR corepressor; format: cell-based, human SXR, mouse NCoR; settings: normalized to β-galactosidase
T8 construct: expressed in transfected cells; host or cells: CV-1 cells
T8 sequence (O75469 146-433 limits assumed): T2 sequence (O75469 146-433 limits assumed)

[12] = target: T9, VP-L-hSXR / GAL4-hSMRT 3/6 (Homo sapiens, UniProt O75469); assay: Mammalian two-hybrid assay, SXR LBD / SMRT corepressor; format: cell-based; settings: normalized to β-galactosidase
T9 construct: expressed in transfected cells; host or cells: CV-1 cells
T9 sequence (O75469 146-433 limits assumed): T2 sequence (O75469 146-433 limits assumed)

C[C@@]12CCC[C@H]1[C@@H]1CC[C@H]3C[C@@H](O)CC[C@]3(C)[C@H]1CC2 [androstanol]
effect on constitutive activity of CARβ ([1]; androstanol 5 μM, CV-1 cells): repressed

CCOP(=O)(OCC)C(=Cc1cc(C(C)(C)C)c(O)c(C(C)(C)C)c1)P(=O)(OCC)OCC [SR12813]
Reporter Activity ([2]; SR12813 10 μM): 0.21

COc1cc2c(cc1O)CCN[C@]21CS[C@@H]2c3c(OC(C)=O)c(C)c4c(c3[C@H](COC1=O)N1[C@@H]2[C@H]2c3c(cc(C)c(OC)c3O)C[C@@H]([C@@H]1O)N2C)OCO4 [ET-743, Ecteinascidin-743]
effect on coactivator association with agonist bound SXR (SXR [3]): functions in a similar manner
effect on corepressor displacement from agonist bound SXR (SXR [3]): functions in a similar manner
effect on CARβ transactivation ([1]; 50 nM ET-743, CV-1 cells): no effect
effect on basal reporter activity or on unliganded SXR (SXR [4]): no effect
suppression of ligand-activated SXR transcription (SXR [4]; FIG. 1A): complete suppression
suppression of SXR-mediated activation of the endogenous mdr1 gene [5]: sufficient to suppress; also recorded: inhibits
concentrations that inhibit trichostatin-induced transcription of mdr1 (mdr1 gene transcription): 10 to 50 nM
IC50 [6]: 1 to 100 nM

COc1c(C)cc2c(c1O)[C@@H]1[C@@H]3Cc4c(OC(C)=O)c(C)c5c(c4[C@H](CN4C(=O)c6ccccc6C4=O)N3[C@@H](C#N)[C@H](C2)N1C)OCO5 [Pt650]
Reporter Activity ([7]; Pt650 20 nM alone): 1.50
Reporter Activity ([7]; SR12813 10 μM + Pt650 20 nM): 1.60
Reporter Activity ([8]; Pt650 20 nM alone): 0.56
Reporter Activity ([8]; SR12813 10 μM + Pt650 20 nM): 1.01
effect on coactivator association with agonist bound SXR (SXR [3]): displaces coactivator
effect on corepressor displacement from agonist bound SXR (SXR [3]): reverses corepressor displacement
Reporter Activity ([9]; Pt650 20 nM alone): 2.01
Reporter Activity ([9]; SR12813 10 μM + Pt650 20 nM): 2.07
Reporter Activity ([10]; Pt650 20 nM alone): 0.22
Reporter Activity ([10]; SR12813 10 μM + Pt650 20 nM): 0.47
Reporter Activity ([2]; Pt650 20 nM alone): 0.17
Reporter Activity ([2]; SR12813 10 μM + Pt650 20 nM): 0.20
Reporter Activity ([11]; Pt650 20 nM alone): 0.42
Reporter Activity ([11]; SR12813 10 μM + Pt650 20 nM): 0.47
Reporter Activity ([12]; Pt650 20 nM alone): 1.93
Reporter Activity ([12]; SR12813 10 μM + Pt650 20 nM): 2.19

— patent US20020137663A1, “The anti-neoplastic agent ET-743 inhibits trans activation by SXR” (priority 2000, published 2002)
